{"source": "patent US11827703B2", "about": "“Compositions and methods related to anti-CD19 antibody drug conjugates” (LegoChem Biosciences, Inc., priority 2018, dated 2023)", "molecules": {"B1": {"name": "7F1: anti-CD19 antibody, VH SEQ ID NO: 16, VL SEQ ID NO: 18 (antibody, V domains shown)", "VH": "EVQLVQSGAEVKKPGESLKISCKGSGYSFTSYWIGWVRQMPGKGLEWMGIIYPGDSDTRYSPSFQGQVTISADKSISTAYLQWSSLKASDTAMYYCARGDYWTGFAYWGQGTLVTVSS", "VL": "QSVLTQPPSVSAAPGQKVTISCSGSSSNIGNNYVSWYQQLPGTAPKLLIYDNNKRPSGIPDRFSGSKSGTSATLGITGLQTGDEADYYCGTWDLGWNSVFGGGTKLTVL"}, "B2": {"name": "10D8: anti-CD19 antibody, VH SEQ ID NO: 20, VL SEQ ID NO: 22 (antibody, V domains shown)", "VH": "QVQLVQSGAEVKKPGSSVKVSCKASGGTFSSYAISWVRQAPGQGLEWMGGIIPIFGTANYAQKFQGRVTITADESTSTAYMELSSLRSEDTAVYYCARDRGYDYVWGSYRYGAFDIWGQGTLVTVSS", "VL": "QSALTQPASVSGSPGQSITISCTGTSSDVGGYNYVSWYQQHPGKAPKLMIYEVSNRPSGVSNRFSGSKSGNTASLTISGLQAEDEADYYCSSYDVWVPHMVFGGGTKLTVL"}, "B3": {"name": "9G8: anti-CD19 antibody, VH SEQ ID NO: 6, VL SEQ ID NO: 10 (antibody, V domains shown)", "VH": "EVQLVQSGAEVKKPGESLKISCKGSGYSFTSYWIGWVRQMPGKGLEWMGIIYPGDSDTRYSPSFQGQVTISADKSISTAYLQWSSLKASDTAMYYCARGVSGIYNLHGFDIWGQGTLVTVSS", "VL": "DIQMTQSPSSLSASVGDRVTITCRASQSISSYLNWYQQKPGKAPKLLIYAASSLQSGVPSRFSGSGSGTDFTLTISSLQPEDFATYYCQQGRFGSPFTFGQGTKVEIK"}, "B4": {"name": "5F5: anti-CD19 antibody, VH SEQ ID NO: 2, VL SEQ ID NO: 4 (antibody, V domains shown)", "VH": "B3 VH with V100I", "VL": "B3 VL with G91A, R92S, F93L, G94D, F97L"}, "B5": {"name": "7F11: anti-CD19 antibody, VH SEQ ID NO: 6, VL SEQ ID NO: 8 (antibody, V domains shown)", "VH": "B3 VH", "VL": "B3 VL with R92M, F93W, G94D, S95N"}, "B6": {"name": "F6: anti-CD19 antibody, VH SEQ ID NO: 12, VL SEQ ID NO: 14 (antibody, V domains shown)", "VH": "EVQLVQSGAEVKKPGESLKISCKGSGYSFTSYWIGWVRQMPGKGLEWMGIIYPGDSDTRYSPSFQGQVTISADKSISTAYLQWSSLKASDTAMYYCARVWYYDFWSGADAFDIWGQGTLVTVSS", "VL": "EIVMTQSPATLSVSPGERATLSCRASQSVSSNLAWYQQKPGQAPRLLIYGASTRATGIPARFSGSGSGTEFTLTISSLQSEDFAVYYCQQGSLEAPQTFGQGTKVEIK"}}, "key": {"Ramos": {"test_system": "Ramos", "assay": "Anti-proliferation assay (CellTiter-Glo), Ramos", "type": "cell-based, human", "details": "96 hour treatment", "description": "(§1) Commercially available 6 B cell lymphoma cancer cell lines DOHH-2 (DSMZ, #ACC 47), NALM-6 (DSMZ, #ACC 58), Ramos (ECACC, #85030802), SU-DHL-6 (ATCC, #CRL-2959), WSU-DLCL2 (DSMZ, #ACC 575) and WSU-NHL (DSMZ, #ACC 58) were used. SG2057 was used as the drug, free toxin. Each of the cancer cell lines was seeded in a 96-well plate at 2000 to 10000 per well for the 96 hour treatment group, incubated for 2 hours, and then treated with drug and ADC at a concentration of from 0.00025 to 100 nM (5-fold times serial dilutions). After 96 hours, the number of living cells was quantified using CellTiter-Glo Luminescent cell viability assay (Promega-G7573). Inhibition rate (IR) of the drug and ADC were determined by the following formula: IR (%)=(1−(RLU compound−RLU blank)/(RLU control−RLU blank))*100%. The inhibitions of different dose of samples were calculated in Excel file, and then were used to plot inhibition curve and evaluate related parameters, such as Bottom (%), Top (%) and Relative IC50. The IC50 for each experiment and treatment was calculated (See table below)."}, "SU-DHL-6": {"test_system": "SU-DHL-6", "assay": "Anti-proliferation assay (CellTiter-Glo), SU-DHL-6", "type": "cell-based, human", "details": "SU-DHL-6, 96 hour treatment", "description": "as §1"}, "WSU-DLCL2": {"test_system": "WSU-DLCL2", "assay": "Anti-proliferation assay (CellTiter-Glo), WSU-DLCL2", "type": "cell-based", "details": "WSU-DLCL2, 96 hour treatment", "description": "as §1"}, "DOHH2": {"test_system": "DOHH2", "assay": "Anti-proliferation assay (CellTiter-Glo), DOHH2", "type": "cell-based", "details": "DOHH2, 96 hour treatment", "description": "as §1"}, "WSU-NHL": {"test_system": "WSU-NHL", "assay": "Anti-proliferation assay (CellTiter-Glo), WSU-NHL", "type": "cell-based", "details": "96 hour treatment", "description": "as §1"}, "NALM6": {"test_system": "NALM6", "assay": "Anti-proliferation assay (CellTiter-Glo), NALM6", "type": "cell-based, human", "details": "NALM6, 96 hour treatment", "description": "as §1"}, "[1]": {"test_system": "Ramos Burkitt's lymphoma cells", "assay": "Ramos non-Hodgkin lymphoma xenograft model", "details": "Ramos s.c. xenograft, i.v. treatment", "quoted_text": "Anti-tumor activity of anti-CD19 (9G8) Antibody Drug Conjugate was evaluated in immunodeficient CB-17 scid mice subcutaneously engrafted with Ramos Burkitt's lymphoma cells.\nCB17-SCID mice (Charles River), aged 7 weeks, were implanted subcutaneously (s.c.) in the right flank with 5×10^6 Ramos cells (obtained from ATCC). Tumor volumes (calculated using the formula TV=(0.5×[length×width^2]) were measured by digital caliper 3 times a week and mice were recruited for treatment when tumor volumes reached 200-250 mm^3. Mice were assigned to different groups (see table below) in order to obtain homogeneous mean tumor volumes between cohorts (n=7-8 mice per group. Mean tumor volume: hIgG1 control 1 mg/kg, 1 inj.: 243 mm^3±26; anti-CD19 CaaX 1 mg/kg, 1 inj.: 233 mm^3±18; hIgG1 ADC 1 mg/kg, 1 inj.: 224 mm^3±20; anti CD19 ADC 0.33 mg/kg, 1 inj.: 242 mm^3±28; anti CD19 ADC 0.66 mg/kg, 1 inj.: 234 mm^3±23; anti CD19 ADC 1 mg/kg, 1 inj.: 234 mm^3±31; anti CD19 ADC 0.33 mg/kg 1 inj./week during 3 weeks: 251 mm^3±25; rituximab 6 mg/kg, 1 inj.: 242 mm^3±31). Single dose or multiple dose (only for cohort anti-CD19 ADC 0.33 mg/kg 1×/week, 3 weeks) treatments were injected i.v. in the tail vein. Mice were then monitored for body weight 3 times a week and for tumor growth 3 times a week until the endpoint of the experiment (tumor volume=1500 mm^3)."}, "[2]": {"test_system": "human B lymphocyte cell lines: Raji, Ramos, Nalm6, Su-DHL6, Su-DHL4, and Mec2", "assay": "FACS binding to human B lymphocyte cell lines", "details": "comparison of cell lines", "description": "The ability of various anti-CD19 antibodies of the disclosure to bind various human B lymphocyte cell lines was evaluated. In particular, the human IgG1 5F5, 7F11, 9G8, F6, 7F1, and 10D8 anti-CD19 antibodies were evaluated for their abilities to bind (i) six human B lymphocyte cell lines: Raji, Ramos, Nalm6, Su-DHL6, Su-DHL4, and Mec2, (ii) a CD19 silenced B cell line: Raji siRNA; and a negative cell line (Jurkat). All incubations were prepared in FACS buffer (PBS, BSA 2%) at 4° C. Fc receptors on B cells were blocked with 10% mouse serum. Four doses of hIgG1 were tested: 10, 1, 0.1 and 0.01 μg/mL. Cell surface bound hIgG1 were detected with a mouse anti-human IgG Fc-PE mAb."}, "cynomolgus CD19": {"test_system": "cynomolgus CD19", "assay": "FACS binding to CHO cell line transfected with cynomolgus CD19", "design": "species or system cynomolgus monkey", "details": "transfected CHO cynoCD19 cells, 10 to 0.01 μg/mL", "description": "The ability of the anti-CD19 antibodies to bind human and/or cynomolgus monkey CD19 was evaluated.\nIn particular, the human IgG1 5F5, 7F11, 9G8, F6, 7F1, and 10D8 anti-CD19 antibodies were evaluated for their abilities to bind a CHO cell line transfected with cynomolgus CD19 and a negative control cell line (CHO). All incubations were prepared in FACS buffer (PBS, BSA 2%) at 4° C. Fc receptors on B cells were blocked with 10% mouse serum. Four doses of hIgG1 were tested: 10, 1, 0.1 and 0.01 μg/mL."}}, "note": "Residue numbers refer to the chain shown, from its start."}
{"molecule": "C=C1C[C@H]2C=Nc3cc(OCCCCCOc4cc5c(cc4OC)C(=O)N4CC(=C)C[C@H]4C=N5)c(OC)cc3C(=O)N2C1", "note": "[Free dPBD (SG2057), SG2057]", "values": [{"measurement": "IC50", "setting": "Ramos", "value": 150, "unit": "pM"}, {"measurement": "IC50", "setting": "SU-DHL-6", "value": 50, "unit": "pM"}, {"measurement": "IC50", "setting": "WSU-DLCL2", "value": 4, "unit": "pM"}, {"measurement": "IC50", "setting": "DOHH2", "value": 5.4, "unit": "pM"}, {"measurement": "IC50", "setting": "WSU-NHL", "value": 13, "unit": "pM"}, {"measurement": "IC50", "setting": "NALM6", "value": 3.5, "unit": "pM"}]}
{"molecule": "rituximab", "values": [{"measurement": "mice reaching the tumor size endpoint (tumor volume=1500 mm^3)", "setting": "[1]", "value": "four of seven mice reached the endpoint"}, {"measurement": "survival to day 70", "setting": "[1]; rituximab 6 mg/kg single", "value": "three survived to day 70"}]}
{"molecule": "B1", "values": [{"measurement": "binding profile Nalm6 versus Raji cells", "setting": "[2]", "value": "bind better to Nalm6 than to Raji cells"}, {"measurement": "cross-reactivity with cynomolgus CD19", "setting": "cynomolgus CD19", "value": "did not bind"}]}
{"molecule": "B2", "values": [{"measurement": "binding profile Nalm6 versus Raji cells", "setting": "[2]", "value": "bind better to Nalm6 than to Raji cells"}, {"measurement": "cross-reactivity with cynomolgus CD19", "setting": "cynomolgus CD19", "value": "did not bind"}]}
{"molecule": "B3", "values": [{"measurement": "cross-reactivity with cynomolgus CD19", "setting": "cynomolgus CD19", "value": "clearly cross-reactive"}]}
{"molecule": "B4", "values": [{"measurement": "cross-reactivity with cynomolgus CD19", "setting": "cynomolgus CD19", "value": "slightly cross-reactive"}]}
{"molecule": "B5", "values": [{"measurement": "cross-reactivity with cynomolgus CD19", "setting": "cynomolgus CD19", "value": "slightly cross-reactive"}]}
{"molecule": "B6", "values": [{"measurement": "cross-reactivity with cynomolgus CD19", "setting": "cynomolgus CD19", "value": "slightly cross-reactive"}]}
